Measured values as given in US20190119348A1, “PARATHYROID HORMONE RECEPTOR 1 ANTAGONIST AND INVERSE AGONIST POLYPEPTIDES AND METHODS OF THEIR USE” (The General Hospital Corporation, priority 2016, published 2019).
Where a SMILES comes first, the peptide text is derived from it. [ ]: non-standard residue; d: D form. Nle = CCCC[C@H](N)C(=O)O

Target: T1, human PTHR1-H223R (Homo sapiens, UniProt Q03431, H223R)
T1 construct: expressed in transfected cells; host or cells: GHR-10 (HEK-293 stably expressing GloSensor and PTHR1-H223R)
T1 sequence (Q03431 27-593 H223R): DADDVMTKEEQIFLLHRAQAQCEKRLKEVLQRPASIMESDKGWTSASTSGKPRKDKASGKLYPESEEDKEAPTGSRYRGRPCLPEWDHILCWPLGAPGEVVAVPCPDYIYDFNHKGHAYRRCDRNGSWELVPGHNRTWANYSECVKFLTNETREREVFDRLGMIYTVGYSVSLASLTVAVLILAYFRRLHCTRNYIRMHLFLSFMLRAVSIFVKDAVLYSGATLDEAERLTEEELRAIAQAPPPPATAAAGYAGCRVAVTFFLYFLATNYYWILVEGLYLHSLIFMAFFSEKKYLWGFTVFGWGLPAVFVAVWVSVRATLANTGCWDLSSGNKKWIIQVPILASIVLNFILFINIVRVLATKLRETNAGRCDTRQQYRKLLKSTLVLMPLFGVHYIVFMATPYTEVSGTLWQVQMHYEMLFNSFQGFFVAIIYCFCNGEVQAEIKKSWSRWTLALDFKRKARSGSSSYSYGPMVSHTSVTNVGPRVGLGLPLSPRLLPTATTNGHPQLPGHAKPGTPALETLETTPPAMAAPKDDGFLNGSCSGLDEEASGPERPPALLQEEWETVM
Assay: Inverse agonism on basal cAMP signaling in GHR-10 cells
Format: cell-based
Conditions: for inverse agonist properties on constitutively active PTHR1-H223R (basal cAMP): GHR-10 cells (HEK293/GloSensor); for Reduction of basal cAMP, % vehicle, After ligand washout / Reduction of basal cAMP, % vehicle, Ligand @ −6M: GHR-10 cells, from AUC, representative experiment; for Reduction of basal cAMP, % vehicle, After ligand washout: 26 minutes after washout of unbound ligand; for Reduction of basal cAMP, % vehicle, Ligand @ −6M: peptide 1×10^−6 M for 24 minutes
Description: cAMP signaling was assessed in the HEK293-derived or SaOS2-derived cell lines stably expressing the luciferase-based GloSensor™ cAMP reporter (Hattersley et al., Paper presented at: Novel Signaling Mechanisms and Bone Cell Biology 2014; Binkowski et al., Methods in molecular biology. 756:263-271). HEK-293 cells were further transfected to stably express the hPTHR1, hPTHR1-H223R, or hPTHR1-T410P. The cells were seeded into 96-well white plates and were assayed 24 to 48 hours post-confluency. Assays were performed at room temperature in CO2-independent culture media (Life Technologies, Corp., Carlsbad, Calif.) containing 0.1% BSA (CIDB). The cells were pre-loaded with luciferin (0.5 mM in CIDB) for 15 minutes, then PTH peptides were added at varying concentrations. cAMP-dependent luminescence was measured at two-minute intervals using a PerkinElmer Envision plate reader. The time at which maximum luminescence (cps) observed with agonist alone, typically at 10-20 minutes after agonist addition, was used to obtain data from wells containing antagonist with or without agonist, to thus generate antagonist ligand dose-response curves. The resulting cps values were then plotted against ligand concentration using GraphPad Prism 7.0 software and a four-parameter logistics curve fitting equation, which yielded parameters of inhibitory potency (pIC50).
These experiments were performed in HEK-293 cells stably transfected to express the GloSensor™ cAMP reporter along with a constitutively active mutant human PTHR1. The HEK-293 cells stably expressing GloSensor™ cAMP reporter along with a constitutively active mutant human PTHR1-H223R are GHR-10 cells. The HEK-293 cells stably expressing GloSensor™ cAMP reporter along with a constitutively active mutant human PTHR1-T410P are GTP-4 cells. The HEK-293 cells stably expressing GloSensor™ cAMP reporter along with a WT-PTHR1 are GP-2.3 cells. GP-2.3 cells were used as control. […] Effects on basal cAMP signaling over time were assessed during periods of direct ligand addition (FIGS. 15A-15F). The measurements were performed by recording GloSensor™ luminescence as counts per second (cps) using a PerkinElmer Envision plate reader. The data are illustrated in FIGS. 15A-15F. Data are from triplicate wells (means±SEM) of a single experiment representative of two others.
Persistence of the antagonist/inverse agonist effects (prolonged action) as follows. Effects of eight peptides on basal and PTH(1-34)-stimulated cAMP signaling by PTHR-H223R were assessed in GHR-10 cells (HEK-293-derived cells stably expressing glosensor cAMP reporter and PTHR1-H223R). Time courses of changes in cAMP levels were recorded in three consecutive phases:
1) after initial addition of a candidate antagonist/inverse agonist (1×10^−6 M-1×10^−9 M) to cells pre-loaded for […] with luciferin (left column);
2) after removal of unbound inverse agonist by extensive wash-out with buffer and replenishment with fresh luciferin-containing buffer (middle column); and
Control wells were treated with vehicle. GloSensor™ luminescence, as counts per second (cps), was recorded using a PerkinElmer Envision plate reader. Data are from duplicate wells (means±SEM) of a single experiment representative of two others. The results are illustrated in Table 7 and in FIGS. 16A-16C, 17A-17C, 18A-18C, 19A-19C, 20A-20C, 21A-21C, 22A-22C, and 23A-23C.
GHR10 cells were treated with vehicle or vehicle containing the indicated peptide for 24 minutes and cAMP-dependent luminescence was recorded at two-minute intervals. The cells were then washed to remove unbound ligand and media containing fresh luciferin was added, and cAMP luminescence was recorded for another 26 minutes. Percentage reduction was calculated from the area-under-the-curve (AUC) values derived from the time course plots using the equation: […]

| Compound | inverse agonist properties on constitutively active PTHR1-H223R (basal cAMP) | Reduction of basal cAMP, % vehicle, After ligand washout [% vehicle] | Reduction of basal cAMP, % vehicle, Ligand @ −6M [% vehicle] |
| --- | --- | --- | --- |
| CC[C@H](C)[C@H](N)C(=O)N[C@@H](CCC(N)=O)C(=O)N[C@@H](CC(C)C)C(=O)N[C@@H](CCSC)C(=O)N[C@@H](Cc1c[nH]cn1)C(=O)N[C@@H](CCC(N)=O)C(=O)N[C@@H](CCCNC(=N)N)C(=O)N[C@H](Cc1c[nH]c2ccccc12)C(=O)N[C@@H](CCCCN)C(=O)N[C@@H](Cc1c[nH]c2ccccc12)C(=O)N[C@H](C(=O)N[C@@H](CCC(N)=O)C(=O)N[C@@H](CC(=O)O)C(=O)N[C@@H](C)C(=O)N[C@@H](CCCNC(=N)N)C(=O)N[C@@H](CCCNC(=N)N)C(=O)N[C@@H](CCCNC(=N)N)C(=O)N[C@@H](C)C(=O)N[C@@H](Cc1c[nH]c2ccccc12)C(=O)N[C@@H](CC(C)C)C(=O)N[C@@H](Cc1c[nH]cn1)C(=O)N[C@@H](CCCCN)C(=O)N[C@@H](CC(C)C)C(=O)N[C@H](C(=O)N[C@@H](C)C(=O)N[C@@H](CCC(=O)O)C(=O)N[C@H](C(=O)N[C@@H](Cc1c[nH]cn1)C(=O)N[C@H](C(=O)N[C@@H](C)C(=O)N[C@@H](CCC(=O)O)C(=O)N[C@H](C(N)=O)[C@@H](C)CC)[C@@H](C)O)[C@@H](C)CC)[C@@H](C)CC)[C@@H](C)CC [compound 1949, dW12, W23-LA-PTH(5-36)] (H-IQLMHQR[dW]KWIQDARRRAWLHKLIAEIHTAEI-NH2; N-terminus assumed) | exhibited inverse agonist properties | 30 | 41 |
| CC[C@H](C)[C@H](NC(=O)[C@H](CCC(=O)O)NC(=O)[C@H](C)NC(=O)[C@@H](NC(=O)[C@H](Cc1c[nH]cn1)NC(=O)[C@@H](NC(=O)[C@H](CCC(=O)O)NC(=O)[C@H](C)NC(=O)[C@@H](NC(=O)[C@H](CC(C)C)NC(=O)[C@H](CCCCN)NC(=O)[C@H](Cc1c[nH]cn1)NC(=O)[C@H](CC(C)C)NC(=O)[C@H](Cc1c[nH]c2ccccc12)NC(=O)[C@H](C)NC(=O)[C@H](CCCNC(=N)N)NC(=O)[C@H](CCCNC(=N)N)NC(=O)[C@H](CCCNC(=N)N)NC(=O)[C@H](C)NC(=O)[C@H](CC(=O)O)NC(=O)[C@H](CCC(N)=O)NC(=O)[C@@H](NC(=O)[C@H](Cc1c[nH]c2ccccc12)NC(=O)[C@H](CCCCN)NC(=O)[C@@H](Cc1c[nH]c2ccccc12)NC(=O)[C@H](CCCNC(=N)N)NC(=O)[C@H](CCC(N)=O)NC(=O)[C@H](Cc1c[nH]cn1)NC(=O)[C@H](CCSC)NC(=O)[C@@H](N)CC(C)C)[C@@H](C)CC)[C@@H](C)CC)[C@@H](C)CC)[C@@H](C)O)C(N)=O [compound 1990, dW12, W23-LA-PTH(7-36)-1990] (H-LMHQR[dW]KWIQDARRRAWLHKLIAEIHTAEI-NH2; N-terminus assumed) | inverse agonist response | 39 | 50 |
| CCCC[C@H](NC(=O)[C@@H](N)CC(C)C)C(=O)N[C@@H](Cc1c[nH]cn1)C(=O)N[C@@H](CCC(N)=O)C(=O)N[C@@H](CCCNC(=N)N)C(=O)N[C@H](Cc1c[nH]c2ccccc12)C(=O)N[C@@H](CCCCN)C(=O)N[C@@H](Cc1c[nH]c2ccccc12)C(=O)N[C@H](C(=O)N[C@@H](CCC(N)=O)C(=O)N[C@@H](CC(=O)O)C(=O)N[C@@H](C)C(=O)N[C@@H](CCCNC(=N)N)C(=O)N[C@@H](CCCNC(=N)N)C(=O)N[C@@H](CCCNC(=N)N)C(=O)N[C@@H](C)C(=O)N[C@@H](Cc1c[nH]c2ccccc12)C(=O)N[C@@H](CC(C)C)C(=O)N[C@@H](Cc1c[nH]cn1)C(=O)N[C@@H](CCCCN)C(=O)N[C@@H](CC(C)C)C(=O)N[C@H](C(=O)N[C@@H](C)C(=O)N[C@@H](CCC(=O)O)C(=O)N[C@H](C(=O)N[C@@H](Cc1c[nH]cn1)C(=O)N[C@H](C(=O)N[C@@H](C)C(=O)N[C@@H](CCC(=O)O)C(=O)N[C@H](C(N)=O)[C@@H](C)CC)[C@@H](C)O)[C@@H](C)CC)[C@@H](C)CC)[C@@H](C)CC [compound 1992, Nle8, dW12, W23-LA-PTH(7-36)-1992] (H-L[Nle]HQR[dW]KWIQDARRRAWLHKLIAEIHTAEI-NH2; N-terminus assumed) | inverse agonist response | 40 | 51 |
| CCCC[C@H](NC(=O)[C@@H](N)CC(C)C)C(=O)N[C@@H](Cc1c[nH]cn1)C(=O)N[C@@H](CCC(N)=O)C(=O)N[C@@H](CC(C)C)C(=O)N[C@H](Cc1c[nH]c2ccccc12)C(=O)N[C@@H](CCCCN)C(=O)N[C@@H](Cc1c[nH]c2ccccc12)C(=O)N[C@H](C(=O)N[C@@H](CCC(N)=O)C(=O)N[C@@H](CC(=O)O)C(=O)N[C@@H](C)C(=O)N[C@@H](CCCNC(=N)N)C(=O)N[C@@H](CCCNC(=N)N)C(=O)N[C@@H](CCCNC(=N)N)C(=O)N[C@@H](C)C(=O)N[C@@H](Cc1c[nH]c2ccccc12)C(=O)N[C@@H](CC(C)C)C(=O)N[C@@H](Cc1c[nH]cn1)C(=O)N[C@@H](CCCCN)C(=O)N[C@@H](CC(C)C)C(=O)N[C@H](C(=O)N[C@@H](C)C(=O)N[C@@H](CCC(=O)O)C(=O)N[C@H](C(=O)N[C@@H](Cc1c[nH]cn1)C(=O)N[C@H](C(=O)N[C@@H](C)C(=O)N[C@@H](CCC(=O)O)C(=O)N[C@H](C(N)=O)[C@@H](C)CC)[C@@H](C)O)[C@@H](C)CC)[C@@H](C)CC)[C@@H](C)CC [compound 1997, Nle8,L11, dW12, W23-LA-PTH(7-36)-1997] (H-L[Nle]HQL[dW]KWIQDARRRAWLHKLIAEIHTAEI-NH2; N-terminus assumed) | – | 71 | 70 |
